Experimental data: US8222031B2, “Three-dimensional skin model” (Fraunhofer-Gesellschaft zur Foerderung der angewandten …, priority 2000, dated 2012)

Key:
Type in all cases: cell-based
[1] = test system: three-dimensional human skin equivalent; assay: Il1α secretion in media supernatants of skin equivalents by ELISA
Description: (§1) Substances samples were used equivalently for testing on the human skin equivalent. The objective was to study any irritating effect of the samples on the full skin model after 48 hours of incubation time via the EZ4U metabolism. The secretion of Il1α and PGE2 was supposed to be determined in the media supernatants after 24 hours and after 48 hours by ELISA. Different concentrations of SDS were also run as a reference substance. Finally, all tested skin equivalents were fixed, and the morphological structure was tested and evaluated with stained paraffin sections.
(§2) The skin equivalents each were prepared in a 6-well with 1 ml of medium (KBM without hEGF, without BPE, and with 1.8 mM CaCl2). The samples were incubated on the surface of the corresponding skin models according to the following schedule:
(§3) Day 1: Application of 3 μl substance in the morning and in the afternoon.
Day 2: Media replacement and freezing of media supernatants for Il1α und PGE2 determination. […]
(§4) The Il1α and PGE2 content in the media supernatants was determined after 24 hours and 48 hours of incubation of the samples using commercially available ELISA test kits and following their instructions.
The induced secretion of cytokine Il1α was quantified by ELISA first after 24 hours and then after a subsequent, additional incubation for 24 hours with test substances in the media supernatants of the equivalents. […]

[2] = test system: three-dimensional human skin equivalent; assay: EZ4U test: cell metabolism (cytotoxicity) of skin equivalents
Description: as §1
The skin equivalents each were prepared in a 6-well with 1 ml of medium (KBM without hEGF, without BPE, and with 1.8 mM CaCl2). The samples were incubated on the surface of the corresponding skin models according to the following schedule: […]
The EZ4U test was performed as followed: After 48 hours of incubation, the cell metabolism of the individual skin equivalents was determined photometrically using a vital stain (tetrazolium derivative). […] Turnover kinetics of the negative controls, positive controls, and the equivalents treated with the samples were recorded over a period of 2 hours at 450 nm (with a reference wavelength of 620 nm). […] Both Ec50 and Et50 were determined for SDS. Et50 was determined according to different exposure times from 1% SDS (3 sec, 30 sec, 60 sec, 5 min, 15 min). […]

[3] = test system: three-dimensional human skin equivalent; assay: PGE2 synthesis in media supernatants of skin equivalents by ELISA
Description: as §1, §2, §3
Day 2: Media replacement and freezing of media supernatants for Il1α und PGE2 determination. Treatment with 3 μl substance in the morning and in the afternoon.
Day 3: Freezing of media supernatants for Il1α und PGE2 determination. Determination of cell metabolism in EZ4U test over a period of 2 hours. Fixation of slides and preparation of stained paraffin sections for histological evaluation.
as §4
The synthesis of the PGE2 inflammatory mediator was quantitatively determined by ELISA in the skin model after a first incubation for 24 hours and subsequent second incubation for 24 hours with test substances in the media supernatants of the equivalents. Samples 186-355 as well as different concentrations of SDS were used as test substances.

CCCCCCCCCCCCOS(=O)(=O)[O-].[Na+] [SDS]
Il1α secretion, maximum ([1]; 1% SDS, first 24 h incubation): more than 100 pg/ml per skin equivalent
Il1α secretion after the second incubation ([1]; SDS, second 24 h incubation): remain overall elevated
Change (in percent) of cell metabolism after 48 hours of incubation, in relation to untreated control (100%) ([2]; AST-2000, SDS 0.73% (Ec50 from dose/effect curve)): 50%
Ec50 (concentration that causes 50% cell damage; irritation threshold) ([2]; SDS reference, dose/effect curve): 0.73%
PGE2 synthesis ([3]; 1% SDS, after the first 24 hours): ≥ 4000 pg/ml per skin equivalent
PGE2 synthesis after the second 24-hour incubation ([3]; SDS, second 24-hour incubation): practically unchanged
PGE2 synthesis ([3]; up to an SDS concentration of 0.5%): almost unchanged low level
